Results taken from patent US12679878B2, “CRF2 receptor agonists and their use in therapy” (SANOFI, priority 2020, dated 2026).
Read-outs that look alike come from different tables or passages of the source. Starred links: 1 amine or outer side, 2 acyl side, 3 side chain; linkers in the order of their positions; H or OH if unused. Non-standard residues stand in square brackets, D forms with d. Residues, ends and D or L forms follow the SMILES beside them. Groups on a side chain read outwards from the residue. *: point of attachment. C18 diacid = O=C(O)CCCCCCCCCCCCCCCCC(=O)*; γGlu = O=C(O)[C@H](CCC(=O)[*:2])N[*:1]; AEEA = NCCOCCOCC(=O)O; Aib = CC(C)(N)C(=O)O

How the values were obtained:
human CRF2α receptor = biological target: T1, human CRF2α receptor (Homo sapiens, UniProt Q13324); test: cAMP agonism at human CRF2 α receptor in TeloHEAC cells (Example 7); assay type: cell-based; conditions: cAMP HTRF, TeloHEAC cells stably expressing human CRF2 α
T1 construct: expressed in transfected cells; host or cells: TeloHEAC
T1 sequence (Q13324 1-411): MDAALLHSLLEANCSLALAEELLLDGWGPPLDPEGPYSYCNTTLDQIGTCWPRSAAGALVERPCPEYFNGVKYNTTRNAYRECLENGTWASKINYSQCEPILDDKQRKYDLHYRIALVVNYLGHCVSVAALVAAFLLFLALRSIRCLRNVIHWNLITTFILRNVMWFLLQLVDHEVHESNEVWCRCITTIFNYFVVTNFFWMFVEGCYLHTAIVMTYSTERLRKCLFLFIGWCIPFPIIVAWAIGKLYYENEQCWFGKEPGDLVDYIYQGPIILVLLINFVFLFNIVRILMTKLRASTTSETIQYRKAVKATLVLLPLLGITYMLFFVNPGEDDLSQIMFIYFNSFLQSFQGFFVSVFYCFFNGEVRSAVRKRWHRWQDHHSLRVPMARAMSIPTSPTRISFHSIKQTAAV
Summary of the method: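 HTRF ratio 665/620 nm, read 1 h after lysis reagents, reports cAMP. Cells: thawed stocks, 2000/well, 30 min RT with compound in HBSS, 20 mM HEPES, 0 or 0.1% HSA, 2 mM IBMX. Activity normalised to UCN2 1000 nM = 100%; EC50 from half-maximal activation.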

rat CRF2R α receptor = test: cAMP agonism at rat CRF2R α receptor in A7R5 rat aortic smooth muscle cells (Example 8); assay type: cell-based; conditions: cAMP HTRF, A7R5 rat aortic smooth muscle cell line, 0% HSA
Summary of the method: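 Potency (EC50) is the concentration reaching half-maximal activation, with responses scaled so that 1000 nM urocortin 2 equals 100%. Intracellular cAMP was quantified by homogeneous time-resolved fluorescence at 665/620 nm, 1 h after lysis-buffer reagents. Compound stimulation lasted 30 min at room temperature on 2000 IBMX-treated (2 mM) cells per well in HEPES-buffered HBSS.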

CRF1R receptor = biological target: T2, CRF1R receptor (Homo sapiens, UniProt P34998); test: cAMP activity at anti-target CRF1R, CRF1R-overexpression CHO cell line (Example 9); assay type: cell-based; conditions: CRF1R-overexpression CHO cell line; for EC50: 0% HSA; for Emax: read-out: Emax (%)
T2 construct: host or cells: CHO-K1 clone 2
T2 sequence (P34998 24-415): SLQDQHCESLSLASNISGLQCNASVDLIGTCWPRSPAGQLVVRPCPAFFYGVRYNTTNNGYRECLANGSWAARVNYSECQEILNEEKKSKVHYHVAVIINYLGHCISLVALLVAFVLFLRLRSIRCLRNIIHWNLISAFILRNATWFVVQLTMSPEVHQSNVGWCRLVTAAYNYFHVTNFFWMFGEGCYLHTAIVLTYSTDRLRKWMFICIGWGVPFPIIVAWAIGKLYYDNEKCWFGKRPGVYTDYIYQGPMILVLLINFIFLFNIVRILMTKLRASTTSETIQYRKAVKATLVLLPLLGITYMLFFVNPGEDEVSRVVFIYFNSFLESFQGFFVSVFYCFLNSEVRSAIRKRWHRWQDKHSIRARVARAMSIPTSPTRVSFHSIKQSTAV
Summary of the method: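 Using thawed CRF1R-overexpressing CHO cells at 2000 per well, compound is applied for 30 min at RT in HBSS/HEPES buffer with IBMX. Cellular cAMP content is determined via HTRF, and percent activity is calculated against 1000 nM UCN2 defined as 100%.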

[1] = Solubility in buffer systems by UPLC-UV (Example 13); assay type: physicochemical
Summary of the method: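 Quantitation used UV peak area from UPLC of the 1:10-diluted supernatant, set against a reference-compound standard curve with extinction coefficients adjusted for amino acid sequence.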

[2] = Physical stability, Thioflavin T fibrillation assay (Example 14); assay type: physicochemical; conditions: 3 mg/ml, 37° C. shaking
Experimental: The physical stability of the compounds was assessed using a Thioflavin T (ThT) assay.
The time course for fibril formation often follows the characteristic shape of a sigmoidal curve and can be separated into three regions: a lag phase, a fast growth phase, and a plateau phase. The typical fibril formation process starts with the lag phase in which the amount of partially folded peptide turned into fibrils is not significant enough to be detected. The lag-time corresponds to the time the critical mass of the nucleus is built. Afterwards, a drastic elongation phase follows and fibril concentration increases rapidly. Therefore, by measuring the increase in fluorescence intensity attributable to ThT as well as the lag time of the increase, the fibrillation tendency of a peptide can be determined, thereby providing a measure of the physical stability of the peptide.
In the present study, test compounds were diluted in buffer to a final concentration of 3 mg/ml.
The fibrillation tendencies of the peptides were determined under stress using a Fluoroskan Ascent FL or Fluoroskan Ascent fluorometer. […] Plates were sealed with Scotch Tape (Quiagen). Samples were stressed by continuous cycles of 10 s shaking at 960 rpm and 50 s rest period at 37° C. Fibril development was monitored by measuring fluorescence intensity every 20 minutes. For each sample, eight replicates were tested.

[3] = 0% HSA, read-out: EC50 [nM], 0% HSA
[4] = pH 7.4, Solubility in Buffer C [mg/ml]
[5] = Buffer A: 100 mM acetate buffer, pH 4.5
[6] = Buffer B: 100 mM acetate buffer, pH 4.5, 2.7 mg/ml m-cresol

| EC50 (human CRF2α receptor; [3]) [nM] | EC50 (rat CRF2R α receptor) [nM] | EC50 (CRF1R receptor) [nM] | Emax (CRF1R receptor) [%] | solubility at 1 h ([1]; pH 4.5, Solubility in Buffer B [mg/ml]) [µg/mL] | solubility at 1 h [1, 4] [µg/mL] | Increase in FI (fluorescence intensity) [2, 5] | Lag time [2, 5] [h] | Increase in FI (fluorescence intensity) [2, 6] | Lag time [2, 6] [h] | EC50 (human CRF2α receptor; 0.1% HSA, read-out: EC50 [nM], 0.1% HSA) [nM] | SMILES |
| --- | --- | --- | --- | --- | --- | --- | --- | --- | --- | --- | --- |
| 0.48 | 1.71 | > 1000 | 2.7 | > 9000 | > 7900 | No | >45 | No | >45 |  | CC[C@H](C)[C@H](N)C(=O)N[C@H](C(=O)N[C@@H](CC(C)C)C(=O)N[C@@H](CO)C(=O)N[C@@H](CC(C)C)C(=O)N[C@@H](CC(=O)O)C(=O)N[C@H](C(=O)N1CCC[C@H]1C(=O)N[C@H](C(=O)N[C@@H](CCCCN)C(=O)N[C@@H](CC(C)C)C(=O)N[C@@H](CCCCNC(=O)COCCOCCNC(=O)COCCOCCNC(=O)CC[C@H](NC(=O)CCCCCCCCCCCCCCCCC(=O)O)C(=O)O)C(=O)N[C@@H](CCC(N)=O)C(=O)N[C@H](C(=O)N[C@@H](CC(C)C)C(=O)N[C@@H](CC(C)C)C(=O)N[C@@H](CCCCN)C(=O)N[C@@H](CCC(N)=O)C(=O)N[C@@H](CCC(=O)O)C(=O)N[C@@H](CCCNC(=N)N)C(=O)N[C@@H](CCC(N)=O)C(=O)N[C@@H](CCCCN)C(=O)N[C@@H](CCCCN)C(=O)N[C@@H](CCC(N)=O)C(=O)N[C@@H](CCCNC(=N)N)C(=O)N[C@@H](CCC(N)=O)C(=O)N[C@@H](CCC(N)=O)C(=O)N[C@@H](C)C(=O)N[C@@H](CCC(=O)O)C(=O)N[C@H](C(=O)N[C@@H](CC(N)=O)C(=O)NC(C)(C)C(=O)N[C@@H](CCC(N)=O)C(=O)N[C@H](C(=O)N[C@@H](CC(C)C)C(=O)N[C@@H](C)C(=O)N[C@@H](CCC(N)=O)C(=O)N[C@H](C(N)=O)C(C)C)[C@@H](C)CC)[C@@H](C)O)[C@@H](C)CC)[C@@H](C)CC)C(C)C)C(C)C [compound 75] (H-IVLSLDVPIKLK([AEEA-AEEA-γGlu-C18 diacid])QILLKQERQKKQRQQAETN[Aib]QILAQV-NH2) |
| 0.11 | 0.22 | > 1000 | 1.03 |  | > 8800 | No | >45 | No | >45 | 4.36 | CC[C@H](C)[C@H](NC(=O)[C@H](CCC(N)=O)NC(=O)[C@H](CCCCNC(=O)COCCOCCNC(=O)COCCOCCNC(=O)CC[C@H](NC(=O)CCCCCCCCCCCCCCCCC(=O)O)C(=O)O)NC(=O)[C@H](CC(C)C)NC(=O)[C@H](CCCCN)NC(=O)[C@@H](NC(=O)[C@@H]1CCCN1C(=O)[C@@H](NC(=O)[C@H](CC(=O)O)NC(=O)[C@H](CC(C)C)NC(=O)[C@H](CO)NC(=O)[C@H](CC(C)C)NC(=O)[C@@H](NC(=O)[C@@H](N)Cc1ccccc1)[C@@H](C)O)C(C)C)[C@@H](C)CC)C(=O)N[C@@H](CC(C)C)C(=O)N[C@@H](CC(C)C)C(=O)N[C@@H](CCCCN)C(=O)N[C@@H](CCC(N)=O)C(=O)N[C@@H](CCC(=O)O)C(=O)N[C@@H](CCCNC(=N)N)C(=O)N[C@@H](CCC(N)=O)C(=O)N[C@@H](CCCCN)C(=O)N[C@@H](CCCCN)C(=O)N[C@@H](CCC(N)=O)C(=O)N[C@@H](CCCNC(=N)N)C(=O)N[C@@H](CCC(N)=O)C(=O)N[C@@H](CCCCN)C(=O)N[C@@H](C)C(=O)N[C@@H](CCCCN)C(=O)N[C@@H](CCCCN)C(=O)N[C@@H](CC(N)=O)C(=O)N[C@@H](CCCCN)C(=O)N[C@@H](CCC(N)=O)C(=O)N[C@H](C(=O)N[C@@H](CC(C)C)C(=O)N[C@@H](CCC(=O)O)C(=O)N[C@@H](CCCNC(=N)N)C(=O)N[C@H](C(N)=O)C(C)C)[C@@H](C)CC [compound 146] (H-FTLSLDVPIKLK([AEEA-AEEA-γGlu-C18 diacid])QILLKQERQKKQRQKAKKNKQILERV-NH2; N-terminus assumed) |
